How the values were obtained:
Assay in all cases: relative viability (nuclei count vs DMSO), 5 days (fraction); higher = more cells survive
Venetoclax + OSI-027 = compound: CC1(C)CCC(CN2CCN(c3ccc(C(=O)NS(=O)(=O)c4ccc(NCC5CCOCC5)c([N+](=O)[O-])c4)c(Oc4cnc5[nH]ccc5c4)c3)CC2)=C(c2ccc(Cl)cc2)C1 [Venetoclax] + COc1cccc2cc(-c3nc([C@H]4CC[C@H](C(=O)O)CC4)n4ncnc(N)c34)[nH]c12 [OSI-027] (partner 0.5 µM)
Outline: (§1)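 Medians of duplicate plates are given as relative viability. That measure is the nuclei count in treated wells divided by the count in vehicle wells. Counts were taken on 4× images of lung cancer cell lines in 1536-well plates, 5 days after pin-tool dosing the day after seeding with one drug alone or a fixed anchor-drug dose plus five library-drug doses (not always all listed) in √10 steps.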

Selumetinib + Dasatinib = compound: Cn1cnc2c(F)c(Nc3ccc(Br)cc3Cl)c(C(=O)NOCCO)cc21 [Selumetinib] + Cc1nc(Nc2ncc(C(=O)Nc3c(C)cccc3Cl)s2)cc(N2CCN(CCO)CC2)n1 [Dasatinib] (partner 0.075 µM)
Outline: as §1

Venetoclax + Pictilisib = compound: CC1(C)CCC(CN2CCN(c3ccc(C(=O)NS(=O)(=O)c4ccc(NCC5CCOCC5)c([N+](=O)[O-])c4)c(Oc4cnc5[nH]ccc5c4)c3)CC2)=C(c2ccc(Cl)cc2)C1 [Venetoclax] + CS(=O)(=O)N1CCN(Cc2cc3nc(-c4cccc5[nH]ncc45)nc(N4CCOCC4)c3s2)CC1 [Pictilisib] (partner 1 µM)
Outline: as §1

Selumetinib + Lapatinib = compound: Cn1cnc2c(F)c(Nc3ccc(Br)cc3Cl)c(C(=O)NOCCO)cc21 [Selumetinib] + CS(=O)(=O)CCNCc1ccc(-c2ccc3ncnc(Nc4ccc(OCc5cccc(F)c5)c(Cl)c4)c3c2)o1 [Lapatinib] (partner 2 µM)
Outline: as §1

| Cell Line | relative viability (Venetoclax + OSI-027; first compound 0.01 µM) | relative viability (Venetoclax + OSI-027; first compound 0.03162 µM) | relative viability (Venetoclax + OSI-027; first compound 0.1 µM) | relative viability (Venetoclax + OSI-027; first compound 0.3162 µM) | relative viability (Venetoclax + OSI-027; first compound 1 µM) | relative viability (Selumetinib + Dasatinib; first compound 0.02 µM) | relative viability (Selumetinib + Dasatinib; first compound 0.06325 µM) | relative viability (Selumetinib + Dasatinib; first compound 0.2 µM) | relative viability (Selumetinib + Dasatinib; first compound 0.6325 µM) | relative viability (Venetoclax + Pictilisib; first compound 0.01 µM) | relative viability (Venetoclax + Pictilisib; first compound 0.03162 µM) | relative viability (Venetoclax + Pictilisib; first compound 0.1 µM) | relative viability (Venetoclax + Pictilisib; first compound 0.3162 µM) | relative viability (Venetoclax + Pictilisib; first compound 1 µM) | relative viability (Selumetinib + Lapatinib; first compound 0.02 µM) | relative viability (Selumetinib + Lapatinib; first compound 0.06325 µM) | relative viability (Selumetinib + Lapatinib; first compound 0.2 µM) | relative viability (Selumetinib + Lapatinib; first compound 0.6325 µM) |
| --- | --- | --- | --- | --- | --- | --- | --- | --- | --- | --- | --- | --- | --- | --- | --- | --- | --- | --- |
| NCI-H522 | 0.631 | 0.759 | 0.684 | 0.824 | 0.6 | 1.96 | 0.849 | 0.861 | 0.96 |  |  |  |  |  |  |  |  |  |
| HCC-366 | 0.873 | 0.958 | 0.628 | 0.95 | 0.573 | 0.501 | 0.566 | 0.456 | 0.367 | 0.193 | 0.154 | 0.0731 | 0.184 | 0.138 | 1.06 | 0.914 | 0.872 | 0.612 |
| A-427 | 0.449 | 0.572 | 0.434 | 0.487 | 0.46 | 0.785 | 0.729 | 0.555 | 0.407 | 0.651 | 0.809 | 0.588 | 0.834 | 0.705 | 0.98 | 0.914 | 1.09 | 1.1 |
| NCI-H2347 | 0.32 | 0.417 | 0.377 | 0.485 | 0.372 | 0.262 | 0.189 | 0.184 | 0.191 | 0.606 | 0.606 | 0.668 | 0.746 | 0.123 | 0.795 | 0.706 | 0.574 | 0.436 |
| NCI-H1792 | 0.695 | 0.751 | 0.603 | 0.638 | 0.721 | 0.787 | 0.802 | 0.704 | 0.597 | 0.228 | 0.306 | 0.161 | 0.262 | 0.278 | 0.881 | 0.79 | 0.683 | 0.629 |
| LCLC-97TM1 | 0.519 | 0.704 | 0.556 | 0.478 | 0.465 | 0.866 | 0.674 | 0.543 | 0.272 |  | 0.264 | 0.173 | 0.273 | 0.21 | 1.05 | 0.985 | 0.86 | 0.481 |
| RERF-LC-KJ | 0.555 | 0.552 | 0.577 | 0.577 | 0.521 | 0.883 | 0.792 | 0.714 | 0.766 | 0.523 | 0.607 | 0.512 | 0.513 | 0.571 | 0.768 | 0.885 | 0.828 | 0.811 |
| NCI-H1993 | 0.562 | 0.505 | 0.519 | 0.486 | 0.605 | 0.545 | 0.534 | 0.572 | 0.609 | 1.03 | 0.802 | 0.8 | 0.685 | 0.78 | 0.931 | 0.762 | 0.887 | 0.706 |
| NCI-H1734 | 0.616 | 0.568 | 0.515 | 0.57 | 0.542 | 0.506 | 0.531 | 0.466 | 0.549 | 0.507 | 0.508 | 0.398 | 0.513 | 0.488 | 1.12 | 1.02 | 1.09 | 1.04 |
| HCC-44 | 0.609 | 0.652 | 0.539 | 0.589 | 0.477 |  |  |  |  | 0.63 | 0.595 | 0.596 | 0.578 | 0.608 | 0.977 | 1 | 0.891 | 0.966 |
| SK-MES-1 | 0.61 | 0.626 | 0.599 | 0.572 | 0.518 | 0.284 | 0.271 | 0.235 | 0.226 | 0.345 | 0.398 | 0.315 | 0.334 | 0.349 | 0.432 | 0.401 | 0.361 | 0.371 |
| EPLC-272H | 0.284 | 0.294 | 0.281 | 0.292 | 0.3 | 0.294 | 0.297 | 0.355 | 0.174 |  | 0.3 | 0.327 | 0.403 | 0.33 | 0.801 | 0.722 | 0.558 | 0.643 |
| NCI-H838 | 0.493 | 0.405 | 0.37 | 0.377 | 0.435 | 0.275 | 0.254 | 0.304 | 0.267 | 0.661 | 0.48 | 0.474 | 0.465 | 0.534 | 0.838 | 0.732 | 0.861 | 0.671 |
| SK-LU-1 | 0.38 | 0.436 | 0.345 | 0.365 | 0.329 | 0.177 | 0.208 | 0.181 | 0.141 | 0.558 | 0.634 | 0.524 | 0.592 | 0.511 | 0.964 | 0.773 | 0.751 | 0.479 |
| NCI-H1623 | 0.419 | 0.424 | 0.414 | 0.444 | 0.424 | 0.465 | 0.454 | 0.461 | 0.505 |  |  |  |  |  |  |  |  |  |
| Calu-6 |  |  |  |  |  |  |  |  |  | 0.801 | 0.89 | 0.879 | 0.857 | 0.882 | 1.05 | 0.853 | 0.693 | 0.439 |
| LCLC-103H | 0.5 | 0.492 | 0.502 | 0.404 | 0.404 | 0.524 | 0.505 | 0.568 | 0.491 | 0.686 | 0.566 | 0.635 | 0.676 | 0.619 |  |  |  |  |
